In patent publication US20100160356A1, “NOVEL CYCLOBUTYL COMPOUNDS AS KINASE INHIBITORS” (priority 2006, published 2010):
Values after ≈ are worked out from the molar mass of the structure shown.

Assays:
FAK = FAK (Homo sapiens, UniProt Q05397); experiment: Inhibition of FAK (flashplate assay); type: biochemical; conditions: flashplate method
Method: The test plates used are 384-well flashplate microtitre plates from Perkin Elmer (USA). The components of the kinase reaction are pipetted into the assay plate. The FAK kinase is incubated for 3 hr. with radioactively labelled ^33P-ATP in the presence and absence of test substances in a total volume of 100 μl at room temperature together with biotinylated poly(Glu, Tyr)4:1. The reaction is terminated using 25 μl of a 200 mM EDTA solution. After incubation for a further 30 min at room temperature, the supernatants are removed by suction, and the wells are washed three times with 100 μl of 0.9% NaCl solution each time. The radioactivity is measured using a Topcount scintillation counter (PerkinElmer, USA). IC50 values are calculated using the RS1 computer program.

TIE2 = TIE2 (Homo sapiens, UniProt Q02763); experiment: Inhibition of TIE2 (flashplate assay); type: biochemical; conditions: flashplate method
Method in brief: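 Radiometric flashplate kinase assay: TIE2 incubated 3 h at room temperature with ³³P-ATP and biotinylated poly(Glu,Tyr) 4:1, with or without test compound. Reaction stopped with EDTA, wells washed, incorporated radioactivity counted by scintillation; IC50 calculated from the data.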

IGF1 receptor (IGF1R) = target: T1, IGF1 receptor (IGF1R) (Homo sapiens, UniProt P08069); experiment: Inhibition of IGF1R (ELISA assay), IGF1-stimulated autophosphorylation in cells; type: cell-based; conditions: human tumour cells stimulated with IGF1, read-out: IC50 IGF (ELISA)
T1 construct: endogenous in cells; host or cells: MCF-7 or Calu-6
Method in brief: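 Cells were preincubated 45 min with increasing compound concentrations, then stimulated 5 min with IGF1. Phospho-IGF1R in lysates was captured by a receptor-specific antibody and detected with anti-phosphotyrosine antibody via chemiluminescence ELISA or fluorescent LUMINEX read-out.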

PDGFRβ = PDGFRβ (Homo sapiens, UniProt P09619); experiment: Inhibition of PDGFRβ (flashplate assay); type: biochemical; conditions: flashplate method
Method in brief: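 Readout is scintillation counting of ^33P incorporated by PDGFRβ autophosphorylation after EDTA stop and washes. Kinase and ^33P-ATP were incubated with or without compound for 3 hr at room temperature. IC50 derived from these counts.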

[1] = Solubility in phosphate buffer by the shake flask method; type: physicochemical; conditions: pH 7.0, 37° C., 24 h shake flask; for solubility at 24 h: 37 °C, pH 7, aqueous buffer, thermodynamic from solid
Method: The procedure described in Glomme et al. (J. Pharm. Sci. 94(1): 1-16, 2005) is followed. The concentration determination is carried out by HPLC with UV detection against a standard solution.
Buffer: 3.954 g of sodium dihydrogenphosphate monohydrate 6.024 g of sodium chloride +950 ml of ultrapure water. Setting of pH 7.0 using 0.1 M NaOH or 0.1 M HCl.
The samples were shaken at 37° C. and 450 rpm for 24 h. After about 7 h, the pH of the samples was checked and adjusted if necessary. It was checked whether the sample was still present in excess. Just before the end of the 24 h shaking time, the samples were again checked for pH and a precipitate.
• Ultrapure water plant: MilliQ gradient, Millipore, unit: F3PN37462D • Shaker: TiMix control, Bühler • Incubation hood: TH 15, Bühler • pH meter: 766 Calimatic Knick instrument: pH 1 • pH electrode: InLab 423 Mettler • HPLC: column: LiChroCart 125-4 LiChrospher 100 RP-18 • flow rate: 1.000 ml/min • eluents: • eluent A: 2 ml of diethylamine, for synthesis+1000 ml of methanol, LiChrosolv • eluent B: 5 g of ammonium acetate, for analysis+5 ml of methanol, LiChrosolv+995 ml of ultrapure water

VEGF-2 = VEGF-2 (Homo sapiens, UniProt P35968); experiment: Inhibition of VEGF-2 (flashplate assay); type: biochemical; conditions: flashplate method
Method in brief: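 Kinase incubated 3 hr at room temperature with ^33P-ATP and biotinylated poly(Glu, Tyr)4:1, with or without test substance. Stopped with EDTA, wells washed after 30 min; incorporated radioactivity counted by scintillation and IC50 calculated.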

T1 sequence (P08069 31-1367): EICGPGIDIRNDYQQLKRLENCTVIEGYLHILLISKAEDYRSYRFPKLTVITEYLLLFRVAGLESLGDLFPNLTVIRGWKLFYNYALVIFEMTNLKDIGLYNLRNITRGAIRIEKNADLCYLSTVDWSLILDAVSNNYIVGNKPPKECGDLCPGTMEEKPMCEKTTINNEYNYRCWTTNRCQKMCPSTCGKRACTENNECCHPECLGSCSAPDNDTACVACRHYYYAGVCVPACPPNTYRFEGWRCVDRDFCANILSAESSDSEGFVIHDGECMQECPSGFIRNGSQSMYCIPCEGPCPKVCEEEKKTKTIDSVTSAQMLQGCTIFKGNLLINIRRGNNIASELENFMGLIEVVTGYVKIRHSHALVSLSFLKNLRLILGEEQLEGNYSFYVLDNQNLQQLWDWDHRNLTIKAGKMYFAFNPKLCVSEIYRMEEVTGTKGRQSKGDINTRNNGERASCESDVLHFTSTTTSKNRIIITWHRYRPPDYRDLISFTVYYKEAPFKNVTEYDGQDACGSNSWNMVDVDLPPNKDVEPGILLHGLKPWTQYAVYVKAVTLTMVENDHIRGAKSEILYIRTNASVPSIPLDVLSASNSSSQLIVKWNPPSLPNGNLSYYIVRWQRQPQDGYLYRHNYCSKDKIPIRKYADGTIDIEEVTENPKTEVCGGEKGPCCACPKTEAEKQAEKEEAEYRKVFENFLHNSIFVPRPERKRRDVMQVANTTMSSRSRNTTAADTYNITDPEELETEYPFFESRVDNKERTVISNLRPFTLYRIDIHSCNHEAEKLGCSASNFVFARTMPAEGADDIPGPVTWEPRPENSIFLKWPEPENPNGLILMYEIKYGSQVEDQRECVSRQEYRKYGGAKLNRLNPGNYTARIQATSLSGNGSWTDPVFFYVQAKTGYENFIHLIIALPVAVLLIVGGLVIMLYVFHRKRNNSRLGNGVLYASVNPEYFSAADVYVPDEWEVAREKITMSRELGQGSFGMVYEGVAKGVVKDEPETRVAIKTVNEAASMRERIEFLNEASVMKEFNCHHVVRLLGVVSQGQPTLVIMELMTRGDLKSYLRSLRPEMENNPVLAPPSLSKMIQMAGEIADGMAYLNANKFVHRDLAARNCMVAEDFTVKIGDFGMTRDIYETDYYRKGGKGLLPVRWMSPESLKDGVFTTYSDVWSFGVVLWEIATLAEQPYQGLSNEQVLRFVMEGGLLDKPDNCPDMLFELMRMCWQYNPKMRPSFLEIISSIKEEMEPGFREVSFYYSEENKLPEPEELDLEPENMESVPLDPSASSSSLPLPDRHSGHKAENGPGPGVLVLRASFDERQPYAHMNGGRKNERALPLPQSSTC
Sequence of FAK (Q05397 whole entry, species assumed): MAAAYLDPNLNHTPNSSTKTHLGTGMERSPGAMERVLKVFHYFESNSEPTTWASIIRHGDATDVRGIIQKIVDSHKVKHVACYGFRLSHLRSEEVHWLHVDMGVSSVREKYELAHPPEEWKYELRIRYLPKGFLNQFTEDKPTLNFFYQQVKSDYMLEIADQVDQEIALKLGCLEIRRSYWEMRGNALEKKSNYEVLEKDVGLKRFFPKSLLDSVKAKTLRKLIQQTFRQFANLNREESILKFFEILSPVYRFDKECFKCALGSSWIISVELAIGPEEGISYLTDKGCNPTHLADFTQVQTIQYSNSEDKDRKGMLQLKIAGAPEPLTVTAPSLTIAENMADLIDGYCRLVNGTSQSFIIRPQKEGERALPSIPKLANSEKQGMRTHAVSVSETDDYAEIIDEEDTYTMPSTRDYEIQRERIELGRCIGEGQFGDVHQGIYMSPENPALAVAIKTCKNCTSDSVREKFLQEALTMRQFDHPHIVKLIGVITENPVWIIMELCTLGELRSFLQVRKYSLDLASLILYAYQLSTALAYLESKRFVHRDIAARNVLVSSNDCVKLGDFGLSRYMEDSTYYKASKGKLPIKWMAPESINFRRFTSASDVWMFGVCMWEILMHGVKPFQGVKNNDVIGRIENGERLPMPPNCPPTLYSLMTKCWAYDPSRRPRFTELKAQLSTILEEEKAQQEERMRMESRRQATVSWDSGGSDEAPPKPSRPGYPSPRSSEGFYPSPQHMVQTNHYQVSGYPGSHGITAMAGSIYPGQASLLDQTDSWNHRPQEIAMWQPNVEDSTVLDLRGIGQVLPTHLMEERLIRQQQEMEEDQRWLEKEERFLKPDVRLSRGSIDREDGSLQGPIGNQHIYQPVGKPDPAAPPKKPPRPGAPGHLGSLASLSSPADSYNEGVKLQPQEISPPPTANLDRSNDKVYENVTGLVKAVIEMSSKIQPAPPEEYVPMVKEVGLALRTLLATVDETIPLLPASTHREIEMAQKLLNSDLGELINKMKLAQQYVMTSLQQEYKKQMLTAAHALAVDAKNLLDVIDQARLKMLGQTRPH
Sequence of PDGFRβ (P09619 33-1106, species assumed): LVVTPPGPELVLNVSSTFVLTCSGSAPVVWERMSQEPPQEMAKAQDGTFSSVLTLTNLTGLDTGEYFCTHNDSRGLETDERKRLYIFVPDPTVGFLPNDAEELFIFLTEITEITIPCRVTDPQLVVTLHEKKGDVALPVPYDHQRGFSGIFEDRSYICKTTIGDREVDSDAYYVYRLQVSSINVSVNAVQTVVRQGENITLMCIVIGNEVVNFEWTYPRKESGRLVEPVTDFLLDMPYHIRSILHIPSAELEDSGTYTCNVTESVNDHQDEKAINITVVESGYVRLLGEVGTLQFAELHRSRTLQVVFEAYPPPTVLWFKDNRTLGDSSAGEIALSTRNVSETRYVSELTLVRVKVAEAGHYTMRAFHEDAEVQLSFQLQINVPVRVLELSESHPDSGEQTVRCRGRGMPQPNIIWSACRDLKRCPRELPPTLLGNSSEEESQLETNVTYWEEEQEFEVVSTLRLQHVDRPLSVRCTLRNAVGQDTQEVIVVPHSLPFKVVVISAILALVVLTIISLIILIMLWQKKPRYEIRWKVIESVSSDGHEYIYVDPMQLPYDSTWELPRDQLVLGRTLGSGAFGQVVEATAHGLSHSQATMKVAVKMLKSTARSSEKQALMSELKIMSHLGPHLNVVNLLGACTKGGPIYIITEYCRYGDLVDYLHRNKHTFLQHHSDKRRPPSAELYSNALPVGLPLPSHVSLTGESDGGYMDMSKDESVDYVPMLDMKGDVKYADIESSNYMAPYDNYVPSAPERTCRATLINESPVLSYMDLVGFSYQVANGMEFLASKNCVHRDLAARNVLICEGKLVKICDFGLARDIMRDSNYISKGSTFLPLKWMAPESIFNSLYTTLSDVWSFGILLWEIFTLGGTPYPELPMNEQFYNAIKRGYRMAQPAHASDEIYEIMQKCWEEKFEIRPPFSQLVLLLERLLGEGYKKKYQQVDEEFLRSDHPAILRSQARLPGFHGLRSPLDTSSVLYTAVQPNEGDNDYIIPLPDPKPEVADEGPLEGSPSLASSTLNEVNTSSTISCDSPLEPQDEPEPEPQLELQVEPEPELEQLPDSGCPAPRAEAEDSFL
Sequence of TIE2 (Q02763 23-1124, species assumed): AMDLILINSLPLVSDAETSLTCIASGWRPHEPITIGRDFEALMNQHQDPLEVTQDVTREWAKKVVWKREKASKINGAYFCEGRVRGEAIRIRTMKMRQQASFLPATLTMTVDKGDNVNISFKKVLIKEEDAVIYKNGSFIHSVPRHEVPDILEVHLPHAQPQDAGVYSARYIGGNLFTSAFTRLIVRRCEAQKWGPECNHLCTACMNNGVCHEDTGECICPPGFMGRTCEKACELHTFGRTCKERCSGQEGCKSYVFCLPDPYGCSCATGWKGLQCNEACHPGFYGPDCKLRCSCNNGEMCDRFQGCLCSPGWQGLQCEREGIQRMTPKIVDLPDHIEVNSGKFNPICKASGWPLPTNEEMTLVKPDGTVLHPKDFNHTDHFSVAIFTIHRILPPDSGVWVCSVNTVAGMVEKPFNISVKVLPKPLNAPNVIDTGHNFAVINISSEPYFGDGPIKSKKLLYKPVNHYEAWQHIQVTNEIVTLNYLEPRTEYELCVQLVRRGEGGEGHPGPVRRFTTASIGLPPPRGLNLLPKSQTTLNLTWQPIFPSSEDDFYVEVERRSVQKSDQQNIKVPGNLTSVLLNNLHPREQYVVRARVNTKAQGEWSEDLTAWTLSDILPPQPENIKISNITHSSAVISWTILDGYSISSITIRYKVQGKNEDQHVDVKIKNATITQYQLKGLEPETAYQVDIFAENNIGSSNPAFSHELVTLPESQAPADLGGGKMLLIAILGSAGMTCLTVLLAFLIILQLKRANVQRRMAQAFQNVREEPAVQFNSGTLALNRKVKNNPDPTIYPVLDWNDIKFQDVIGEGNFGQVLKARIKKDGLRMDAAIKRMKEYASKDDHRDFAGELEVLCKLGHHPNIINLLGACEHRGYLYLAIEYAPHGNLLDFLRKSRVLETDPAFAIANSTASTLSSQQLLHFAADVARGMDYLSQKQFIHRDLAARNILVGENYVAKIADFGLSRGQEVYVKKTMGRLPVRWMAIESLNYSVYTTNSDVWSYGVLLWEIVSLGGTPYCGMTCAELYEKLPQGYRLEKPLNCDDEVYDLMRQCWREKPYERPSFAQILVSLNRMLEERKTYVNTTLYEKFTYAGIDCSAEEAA

| Structure (SMILES) | IC50 (FAK) [nM] | IC50 (TIE2) [nM] | IC50 (IGF1 receptor (IGF1R)) [nM] | IC50 (PDGFRβ) [nM] | solubility at 24 h [1] [µg/mL] | IC50 (VEGF-2) [nM] | Solubility [1] [µg/mL] | Solubility ([1]; listed as 3-[4-Amino-7-(3-pyrrolidin-1-ylmethylcyclobutyl)-7H-pyrrolo[2,3-d]pyrimidin-5-yl) |
| --- | --- | --- | --- | --- | --- | --- | --- | --- |
| Nc1ncnc2c1c(-c1cccc(O)c1)cn2C1CC(CN2CCCC2)C1 (centres unmarked) [Compound 1, 3-[4-amino-7-(3-pyrrolidin-1-ylmethylcyclobutyl)-7H-pyrrolo[2,3-d]pyrimidin-5-yl]phenol] | 1800 | 520 | 2400 | 97 | 1070 (≈ 2.95 mM) | 180 |  |  |
| Nc1ncnc2c1c(-c1cccc(O)c1)cn2C1CC(CN2CCCC2)C1 (centres unmarked) [Compound 2, 3-[4-Amino-7-(3-pyrrolidin-1-ylmethylcyclobutyl)-7H-pyrrolo[2,3-d]pyrimidin-5-yl]phenol] | 2700 | 870 | 5900 | 120 |  | 195 | 1147 (≈ 3.16 mM) | 1147 (tosylate) μg/ml |
| NCC1CC(n2cc(-c3ccc4[nH]ccc4c3)c3c(N)ncnc32)C1 (centres unmarked) [Compound 3, 7-(3-Aminomethylcyclobutyl)-5-(1H-indol-5-yl)-7H-pyrrolo[2,3-d]pyrimidin-4-ylamine] | 7900 | 380 | 5000 | 150 | 1330 (≈ 3.99 mM) | 10 |  |  |
| NCC1CC(n2cc(-c3cc4ccccc4o3)c3c(N)ncnc32)C1 (centres unmarked) [Compound 37] |  | 1100 | 29000 | 170 |  | 160 |  |  |
